Laboratory results as given in paper PMC6981581, “N-(2-Arylmethylthio-4-Chloro-5-Methylbenzenesulfonyl)amide Derivatives as Potential Antimicrobial Agents—Synthesis and Biological Studies” (International Journal of Molecular Sciences, 2019).
≈ marks a conversion by molar mass, not a printed value. Where “and” joins values, the source holds several entries; their conditions need not be identical. Equal values may be shown once. Read-outs that look alike come from different tables or passages of the source.

Key:
Assay type in all cases: cell-based
[1] = tested on: Enterococcus faecalis ATCC 11420; assay: Broth dilution MIC/MBC, reference strain; settings: for MBC / MIC: Enterococcus faecalis, ATCC11420; for MBC/MIC: E. f. ATCC 11420
Description: (§1) The tests were carried out using a serial dilution method, allowing the determination of MIC (minimal concentration inhibiting bacterial growth), MBC (minimal bactericidal concentration), and MFC (minimal fungicidal concentration) values.
(§2) Antimicrobial activity was tested using the following reference strains: Staphylococcus aureus ATCC 6538 (MSSA), Staphylococcus aureus ATCC 43300 (MRSA), Staphylococcus epidermidis PCM 2118, Escherichia coli ATCC 11229, Pseudomonas aeruginosa ATCC 15442, Proteus vulgaris NCTC 4635, Enterococcus faecalis ATCC 11420, and Candida albicans ATCC 10231.
(§3) A broth dilution method was used to determine minimal inhibitory concentration (MIC) for tested compounds as recommended by Clinical Laboratory Standards Institute (CLSI) guidelines. Investigated compounds were diluted in Mueller Hinton Broth 2 (Sigma-Aldrich Co., St. Louis, MO, USA) in polypropylene 96-well plates and initial inoculum 5 × 10^5 cfu/mL were incubated at 37 °C for 18 h. MIC was taken as the lowest drug concentration at which an observable growth was inhibited. […] The loopful (10 µL) of the tested sample was transferred to Tryptic Soy Agar (TSA, Becton-Dickinson, Franklin Lakes, NJ, USA) and incubated at 37 °C for 48 h. […] Drug Solutions were made fresh on the day of the assay. All experiments were performed in triplicate.

[2] = tested on: Escherichia coli ATCC 11229; assay: Broth dilution MIC/MBC, reference strain; settings: for MBC / MIC: Escherichia coli, ATCC11229; for MBC/MIC: E. c. ATCC 11229
Description: as §1, §2, §3

[3] = tested on: Proteus vulgaris NCTC 4635; assay: Broth dilution MIC/MBC, reference strain; settings: for MBC / MIC: Proteus vulgaris, NCTC4635; for MBC/MIC: P. v. NCTC 4635
Description: as §1, §2, §3

[4] = tested on: Pseudomonas aeruginosa ATCC 15442; assay: Broth dilution MIC/MBC, reference strain; settings: for MBC / MIC: Pseudomonas aeruginosa, ATCC15442; for MBC/MIC: P. a. ATCC 15442
Description: as §1, §2, §3

[5] = tested on: Staphylococcus aureus ATCC 43300 (MRSA); assay: Broth dilution MIC/MBC, reference strain; settings: for MBC / MIC: Staphylococcus aureus; for MBC/MIC: S. a. ATCC 43300
Description: as §1, §2, §3

[6] = tested on: Staphylococcus aureus ATCC 6538 (MSSA); assay: Broth dilution MIC/MBC, reference strain; settings: for MBC / MIC: Staphylococcus aureus; for MBC/MIC: S. a. ATCC 6538
Description: as §1, §2, §3

[7] = tested on: Staphylococcus epidermidis PCM 2118; assay: Broth dilution MIC/MBC, reference strain; settings: for MBC/MIC: S. e. PCM 2118
Description: as §1, §2, §3

[8] = tested on: Candida albicans ATCC 10231; assay: Broth dilution MIC/MFC, reference fungal strain; settings: for MFC / MIC: Candida albicans, ATCC10231; for MFC/MIC: C. a. ATCC 10231
Description: as §1, §2, §3

[9] = tested on: HaCaT cell line (human keratinocyte); assay: MTT cell viability assay; settings: MTT assay, 72 h incubation, mean ± SD, read-out: IC50 HaCaT
HCT-116 (colon cancer) = assay: MTT cell viability assay; settings: Homo sapiens, 72 h incubation, mean ± SD
Description: (§4) Analysis was performed using the MTT test and 72 h of incubation.
(§5) All chemicals were obtained from Sigma-Aldrich (St. Louis, MO, USA). The MCF-7 and HeLa cell lines were purchased from Cell Lines Services (Eppelheim, Germany), the HCT-116 cell line was purchased from ATCC (ATCC-No: CCL-247). Cells were cultured in Dulbecco’s modified Eagle’s medium (DMEM) supplemented with 10% fetal bovine serum, 2 mM glutamine, 100 units/mL penicillin, and 100 μg/mL streptomycin. Cultures were held in an incubator (Heraceus, HeraCell) in a humidified atmosphere with 5% CO2 at 37 °C.
(§6) Cell viability was evaluated using the MTT (3-(4,5-dimethylthiazol-2-yl)-2,5-diphenyltetrazolium bromide) assay. Stock solutions of the studied compounds were obtained in 100% DMSO. […] Cells at a density of 5 × 10^3 cells/well, seeded in 96-well plates, were treated for 72 h with the tested compounds in the concentration range 1–100 μM (1, 10, 25, 50 and 100 μM). After treatment, cells were incubated for 2 h with MTT (0.5 mg/mL) at 37 °C. Cells were lysed with DMSO and the absorbance of the formazan solution was measured at 550 nm with a plate reader (1420 multilabel counter, Victor, Jügesheim, Germany). Values are expressed as the mean ± SD of at least three independent experiments conducted in triplicate.

HeLa (cervical cancer) = assay: MTT cell viability assay; settings: Homo sapiens, 72 h incubation, mean ± SD
Description: as §4, §5, §6

MCF-7 (breast cancer) = assay: MTT cell viability assay; settings: Homo sapiens, MCF7, 72 h incubation, mean ± SD
Description: as §4, §5, §6

[10] = E. faecalis ATCC 11420, read-out: MBC
[11] = E. faecalis ATCC 11420, read-out: MIC
[12] = E. coli ATCC 11229, read-out: MBC
[13] = E. coli ATCC 11229, read-out: MIC
[14] = P. vulgaris NCTC 4635, read-out: MBC
[15] = P. vulgaris NCTC 4635, read-out: MIC
[16] = P. aeruginosa ATCC 15442, read-out: MBC
[17] = P. aeruginosa ATCC 15442, read-out: MIC
[18] = S. aureus ATCC 43300, read-out: MBC
[19] = S. aureus ATCC 43300, read-out: MIC
[20] = S. aureus ATCC 6538, read-out: MBC
[21] = S. aureus ATCC 6538, read-out: MIC
[22] = Staphylococcus epidermidis, PCM2118, S. epidermidis PCM 2118, read-out: MBC
[23] = Staphylococcus epidermidis, PCM2118, S. epidermidis PCM 2118, read-out: MIC
[24] = C. albicans ATCC 10231, read-out: MFC
[25] = C. albicans ATCC 10231, read-out: MIC

Row | MBC/MIC [1] | MIC [1, 11] [µg/mL] | MBC/MIC [2] | MIC [2, 13] [µg/mL] | MBC/MIC [3] | MIC [3, 15] [µg/mL] | MBC/MIC [4] | MIC [4, 17] [µg/mL] | MBC/MIC [5] | MIC [5, 19] [µg/mL] | MBC/MIC [6] | MIC [6, 21] [µg/mL] | MBC/MIC [7] | SMILES | MBC [1, 10] [µg/mL] | MBC [2, 12] [µg/mL] | MBC [3, 14] [µg/mL] | MBC [4, 16] [µg/mL] | MBC [5, 18] [µg/mL] | MBC [6, 20] [µg/mL] | MBC [7, 22] [µg/mL] | further results
1 | – | – | – | – | – | – | – | – | – | – | – | – | – | Cc1cc(S(=O)(=O)NC(=O)CCC2CCCCC2)c(SCc2ccccc2)cc1Cl [Compound 8, N-(2-Benzylthio-4-chloro-5-methylbenzenesulfonyl)-3-cyclohexylpropanamide] | – | – | – | – | – | – | – | MBC [1]: > 128 µg/mL; MIC [1]: 128 µg/mL (≈ 275 µM); MBC [2]: > 128 µg/mL; MIC [2]: 128 µg/mL (≈ 275 µM); MBC [3]: > 128 µg/mL; MIC [3]: 64 µg/mL (≈ 137 µM); MBC [4]: > 128 µg/mL; MIC [4]: 128 µg/mL (≈ 275 µM); MBC [5]: > 128 µg/mL; MIC [5]: 16 µg/mL (≈ 34.3 µM); MBC [6]: > 128 µg/mL; MIC [6]: 32 µg/mL (≈ 68.7 µM); MIC ([7]; Staphylococcus epidermidis, PCM2118): 8 µg/mL (≈ 17.2 µM); MBC ([7]; Staphylococcus epidermidis, PCM2118, S. epidermidis PCM 2118): 32 µg/mL (≈ 68.7 µM); MFC [8]: 128 µg/mL (≈ 275 µM); MIC [8]: 64 µg/mL (≈ 137 µM)
2 | >16 | 8 (≈ 15 µM) | >1 | 128 (≈ 240 µM) | >2 | 64 (≈ 120 µM) | >1 | 128 (≈ 240 µM) | >32 | 4 (≈ 7.49 µM) | >16 | 8 (≈ 15 µM) | 2 | Cc1cc(S(=O)(=O)NC(=O)CCC2CCCCC2)c(SCc2ccc(C(F)(F)F)cc2)cc1Cl [Compound 9, N-[4-Chloro-5-methyl-2-(4-trifluoromethylbenzylthio)benzenesulfonyl]-3-cyclohexylpropanamide] | > 128 | > 128 | > 128 | > 128 | > 128 | > 128 | 4 to 16 (≈ 7.49 to 30 µM) | MBC ([7]; S. epidermidis PCM 2118): 8 µg/mL (≈ 15 µM); MIC [7, 23]: 4 µg/mL (≈ 7.49 µM); MFC/MIC [8]: 2; MFC [8, 24]: 128 µg/mL (≈ 240 µM); MIC [8, 25]: 64 µg/mL (≈ 120 µM); IC50 [9]: 40 µg/mL and 74 µM; IC50 (HCT-116 (colon cancer)): 78 ± 2 µM; IC50 (HeLa (cervical cancer)): 90 ± 4 µM; IC50 (MCF-7 (breast cancer)): 65 ± 3 µM
3 | >16 | 8 (≈ 15.5 µM) | >1 | 128 (≈ 248 µM) | >1 | > 128 | >1 | 128 (≈ 248 µM) | >16 | 8 (≈ 15.5 µM) | >16 | 8 (≈ 15.5 µM) | >32 | Cc1cc(S(=O)(=O)NC(=O)CCC2CCCCC2)c(SCc2cccc3ccccc23)cc1Cl [Compound 11, N-[4-Chloro-5-methyl-2-(naphthalen-1-ylmethylthio)benzenesulfonyl]-3-cyclohexylpropanamide] | > 128 | > 128 | > 128 | > 128 | > 128 | > 128 | > 128 | MIC [7, 23]: 4 µg/mL (≈ 7.75 µM); MFC/MIC [8]: 2; MFC [8, 24]: 128 µg/mL (≈ 248 µM); MIC [8, 25]: 64 µg/mL (≈ 124 µM); IC50 [9]: 42 µg/mL and 81 µM; IC50 (HCT-116 (colon cancer)): 66 ± 1 µM; IC50 (HeLa (cervical cancer)): 42 ± 2 µM; IC50 (MCF-7 (breast cancer)): 82 ± 4 µM
